In patent US20050208549A1, “Testing endosymbiont cellular organelles and compounds identifiable therewith” (priority 2000, published 2005):

Tests used:
PBMC of patients = assay: Mitochondrial DNA content per PBMC of HIV-1 infected patients on antiviral therapy (duplex NASBA); type: in vivo, human (HIV-1 infected patients); conditions: for Mitochondrial DNA content in PBMC (per cell), Median / % decrease in mitochondrial DNA content of PBMC: patients
Experimental: Different ratios of mitochondrial and chromosomal DNA targets in plasmids were analyzed in this example: 2×10^3 U1a DNA/8×10^3 Mt DNA, 2×10^3 U1a DNA/2×10^4 MtDNA, 2×10^3 U1a DNA/4×10^4 Mt DNA, 2×10^3 U1a DNA/10^5 Mt DNA, 2×10^3 U1a DNA/2×10^5 Mt DNA, 2×10^3 U1a DNA/4×10^5 Mt DNA, and 2×10^3 U1a DNA/8×10^5 Mt DNA molecules were included. A reaction mix was prepared similar to that of Example 12, except that primers and beacons differed in order to amplify chromosomal and mitochondrial DNA in one tube. The reaction mix (duplex-mix) contained two sets of primers and beacons: SnrpD P1 and SnrpD2 P2 (first primer set, each 0.2 μM), and MtD P1—2 and MtD P2—2 (second primer set, each 0.3 μM) with beacons SnrpD mb—2 (FAM-labeled) and MtD mb—3 (ROX-labeled) (each 0.04 μM). See Table 1 for primer and, probe sequences. Restriction enzyme digestion, amplification, and detection were performed as in Example 12. Filter sets of the fluorimeter (CytoFluor 2000 or EasyQ analyzer) were adapted to simultaneously measure the FAM and the ROX-label (485/20 and 530/25 for FAM; 590/20 and 645/40 for ROX). In a duplex reaction with two competing amplifications, the ratio of the slope of the curves of fluorescence in time is proportional to the ratio of the amount of molecules of each amplified species. The relation between the ratio of the slopes of FAM and ROX signal is linear to the ratio of mitochondrial DNA and chromosomal DNA in the input.
Forty-eight HIV-1 infected patients were randomized for antiviral therapy with either AZT, AZT+ddI, or AZT+ddC. Blood was drawn at week 0, 4, 24, and 48 after the start of therapy. The blood was used to prepare peripheral blood mononuclear cells (PBMC) by Ficoll-Isopaque purification. PBMC were viably frozen in medium plus 5% DMSO and stored in liquid nitrogen until use.
Nucleic acids were extracted from 10^5 PBMC using the Boom method. Nucleic acids equivalent of 1,000 PBMC were used as input for the one-tube real-time duplex-NASBA that measures both mitochondrial and chromosomal DNA as described in Example 17. The result of this assay is expressed as the mitochondrial DNA content per cell (i.e., PBMC) of the patient sample.
The mtDNA content of the PBMC of the patients at start of therapy was compared to the mtDNA content at week 4, 24, and 48 and analyzed for statistically significant changes (see Table 3 and FIGS. 20 and 21).

[1] = cited from earlier work
[2] = test system: peripheral blood mononuclear cells (PBMCs); assay: NASBA ratio of mitochondrial RNA to chromosome-encoded RNA in cultured PBMCs; type: cell-based, human (healthy blood donor)
Experimental: In Table 1, the primers and probes used in the examples are summarized. Standard NASBA nucleic acid amplification reactions were performed in a 20 μl reaction volume and contained: 40 mM Tris-pH 8.5, 70 mM KCl, 12 mM MgCl2, 5 mM dithiothreitol, 1 mM dNTPs (each), 2 mM rNTPs (each), 0.2 μM primer (each), 0.05 μM molecular beacon, 375 mM sorbitol, 0.105 μg/μl bovine serum albumin, 6.4 units AMV RT, 32 units T7 RNA polymerase, 0.08 units RNAse H and input nucleic acid. The complete mixture, except the enzymes, sorbitol and/or bovine serum albumin was, prior to adding the enzyme mixture, heated to 65° C. for two minutes in order to denature any secondary structure in the RNA and to allow the primers to anneal. After cooling the mixture to 41° C., the enzymes were added. The amplification took place at 41° C. for 90 minutes in a fluorimeter (CytoFluor 2000) and the fluorescent signal was measured every minute (using the filter set 530/25 nm and 485/30 nm). For amplification of DNA target sequences, the 65° C. denaturation step was replaced with a 95° C. denaturation step for two to five minutes.
To achieve quantification, a dilution series of target sequences for a particular primer set was amplified and the time points at which the reactions became positive (the time to positivity, TTP) were plotted against the input amounts of nucleic acid. This way a calibration curve was created that could be used to read TTP values of reactions with unknown amounts of input and deduce the input amount.
Cells (fibroblasts and PBMCs) were cultured under standard conditions in standard media known to persons skilled in the art with the addition of drugs or putative toxic or stimulating compounds as defined in the examples. […] A small aliquot of the isolated nucleic acid was analyzed on an agarose gel and the remainder stored at −80° C. until further analysis. […]

Cc1cn([C@H]2C[C@H](N=[N+]=[N-])[C@@H](CO)O2)c(=O)[nH]c1=O [AZT]
Mitochondrial DNA content in PBMC (per cell), Median (PBMC of patients; week 0 (start of therapy)): 196 | % decrease in mitochondrial DNA content of PBMC (PBMC of patients; week 4 compared to start of therapy): 11% | Mitochondrial DNA content in PBMC (per cell), Median (PBMC of patients; week 4 of therapy): 157 | % decrease in mitochondrial DNA content of PBMC (PBMC of patients; week 24 compared to start of therapy): 1% | Mitochondrial DNA content in PBMC (per cell), Median (PBMC of patients; week 24 of therapy): 182 | % decrease in mitochondrial DNA content of PBMC (PBMC of patients; week 48 compared to start of therapy): 5% | Mitochondrial DNA content in PBMC (per cell), Median (PBMC of patients; week 48 of therapy): 155 | Rate (%) of mitochondrial toxicity, affected organ Heart ([1]; Dilated cardio-myopathy): Rare | Rate (%) of mitochondrial toxicity, affected organ Muscle ([1]; Fatigue, myalgia, proximal weakness, wasting, Creatine kinase ↑): 17% | change in ratio of mitochondrial RNA to chromosome-encoded RNA ([2]; culture period of five days, 6 μM and 60 μM): no measurable change

Nc1ccn([C@H]2CC[C@@H](CO)O2)c(=O)n1 [ddC]
change in the mitochondrial DNA content of patients' PBMC under therapy (PBMC of patients; human, in vivo): significant decline | decline in PBMCs of mitochondrial RNA per cell ([2]; five-day culture period, highest concentration of ddC used, FIG. 10): do not clearly show a decline
